{
  "source": "the supplement of paper PMC10307832",
  "assay_in_all_cases": "relative viability (nuclei count vs DMSO), 5 days (fraction); higher = more cells survive",
  "key": {"PC-14": {"test_system": "PC-14", "method_in_brief": "(§1)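 Relative viability divides the nuclei count in treated wells by that in vehicle wells. Lung cancer cell lines were seeded in 1536-well plates, dosed by pin tool the next day, and fixed and stained after 5 days in one step with final 0.05% Triton X-100, 1% formaldehyde and 1 ug/ml Hoechst. Dosing was a single drug or a fixed anchor-drug dose plus five library-drug doses (not always all listed) in √10 steps, and values are medians of duplicate plates imaged at 4×.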"}, "NCI-H23": {"test_system": "NCI-H23", "method_in_brief": "as §1"}, "ChaGo-K-1": {"test_system": "ChaGo-K-1", "method_in_brief": "as §1"}, "NCI-H2347": {"test_system": "NCI-H2347", "method_in_brief": "as §1"}, "H3255": {"test_system": "H3255", "method_in_brief": "as §1"}, "NCI-H2405": {"test_system": "NCI-H2405", "method_in_brief": "as §1"}, "LCLC-97TM1": {"test_system": "LCLC-97TM1", "method_in_brief": "as §1"}, "NCI-H661": {"test_system": "NCI-H661", "method_in_brief": "as §1"}, "EPLC-272H": {"test_system": "EPLC-272H", "method_in_brief": "as §1"}, "NCI-H2126": {"test_system": "NCI-H2126", "method_in_brief": "as §1"}, "LC-2-ad": {"test_system": "LC-2-ad", "method_in_brief": "as §1"}},
  "data": [
    {"smiles": "O=c1cc(-c2cccc3c2Sc2ccccc2S3)oc(N2CCOCC2)c1", "note": "+ COc1cccc2cc(-c3nc([C@H]4CC[C@H](C(=O)O)CC4)n4ncnc(N)c34)[nH]c12 [OSI-027] (partner 0.5 µM)", "values": [
      {"measurement": "relative viability", "setting": "PC-14; first compound 0.253 µM", "result": 1.07},
      {"measurement": "relative viability", "setting": "PC-14; first compound 0.8 µM", "result": 0.714},
      {"measurement": "relative viability", "setting": "PC-14; first compound 2.53 µM", "result": 0.772},
      {"measurement": "relative viability", "setting": "PC-14; first compound 8 µM", "result": 1.02},
      {"measurement": "relative viability", "setting": "NCI-H23; first compound 0.08 µM", "result": 0.511},
      {"measurement": "relative viability", "setting": "NCI-H23; first compound 0.253 µM", "result": 0.739},
      {"measurement": "relative viability", "setting": "NCI-H23; first compound 0.8 µM", "result": 0.519},
      {"measurement": "relative viability", "setting": "NCI-H23; first compound 2.53 µM", "result": 0.54},
      {"measurement": "relative viability", "setting": "NCI-H23; first compound 8 µM", "result": 0.697},
      {"measurement": "relative viability", "setting": "ChaGo-K-1; first compound 0.08 µM", "result": 0.524},
      {"measurement": "relative viability", "setting": "ChaGo-K-1; first compound 0.253 µM", "result": 0.615},
      {"measurement": "relative viability", "setting": "ChaGo-K-1; first compound 0.8 µM", "result": 0.479},
      {"measurement": "relative viability", "setting": "ChaGo-K-1; first compound 2.53 µM", "result": 0.385},
      {"measurement": "relative viability", "setting": "ChaGo-K-1; first compound 8 µM", "result": 0.63},
      {"measurement": "relative viability", "setting": "NCI-H2347; first compound 0.08 µM", "result": 0.421},
      {"measurement": "relative viability", "setting": "NCI-H2347; first compound 0.253 µM", "result": 0.454},
      {"measurement": "relative viability", "setting": "NCI-H2347; first compound 0.8 µM", "result": 0.297},
      {"measurement": "relative viability", "setting": "NCI-H2347; first compound 2.53 µM", "result": 0.431},
      {"measurement": "relative viability", "setting": "NCI-H2347; first compound 8 µM", "result": 0.297},
      {"measurement": "relative viability", "setting": "H3255; first compound 0.08 µM", "result": 0.61},
      {"measurement": "relative viability", "setting": "H3255; first compound 0.253 µM", "result": 0.604},
      {"measurement": "relative viability", "setting": "H3255; first compound 0.8 µM", "result": 0.541},
      {"measurement": "relative viability", "setting": "H3255; first compound 2.53 µM", "result": 0.569},
      {"measurement": "relative viability", "setting": "H3255; first compound 8 µM", "result": 0.671},
      {"measurement": "relative viability", "setting": "NCI-H2405; first compound 0.08 µM", "result": 0.604},
      {"measurement": "relative viability", "setting": "NCI-H2405; first compound 0.253 µM", "result": 0.647},
      {"measurement": "relative viability", "setting": "NCI-H2405; first compound 0.8 µM", "result": 0.61},
      {"measurement": "relative viability", "setting": "NCI-H2405; first compound 2.53 µM", "result": 0.61},
      {"measurement": "relative viability", "setting": "NCI-H2405; first compound 8 µM", "result": 0.618},
      {"measurement": "relative viability", "setting": "LCLC-97TM1; first compound 0.08 µM", "result": 0.48},
      {"measurement": "relative viability", "setting": "LCLC-97TM1; first compound 0.253 µM", "result": 0.407},
      {"measurement": "relative viability", "setting": "LCLC-97TM1; first compound 0.8 µM", "result": 0.539},
      {"measurement": "relative viability", "setting": "LCLC-97TM1; first compound 2.53 µM", "result": 0.519},
      {"measurement": "relative viability", "setting": "LCLC-97TM1; first compound 8 µM", "result": 0.575},
      {"measurement": "relative viability", "setting": "NCI-H661; first compound 0.08 µM", "result": 0.736},
      {"measurement": "relative viability", "setting": "NCI-H661; first compound 0.253 µM", "result": 0.739},
      {"measurement": "relative viability", "setting": "NCI-H661; first compound 0.8 µM", "result": 0.71},
      {"measurement": "relative viability", "setting": "NCI-H661; first compound 2.53 µM", "result": 0.642},
      {"measurement": "relative viability", "setting": "NCI-H661; first compound 8 µM", "result": 0.647},
      {"measurement": "relative viability", "setting": "EPLC-272H; first compound 0.08 µM", "result": 0.254},
      {"measurement": "relative viability", "setting": "EPLC-272H; first compound 0.253 µM", "result": 0.279},
      {"measurement": "relative viability", "setting": "EPLC-272H; first compound 0.8 µM", "result": 0.254},
      {"measurement": "relative viability", "setting": "EPLC-272H; first compound 2.53 µM", "result": 0.251},
      {"measurement": "relative viability", "setting": "EPLC-272H; first compound 8 µM", "result": 0.278},
      {"measurement": "relative viability", "setting": "NCI-H2126; first compound 0.08 µM", "result": 0.672},
      {"measurement": "relative viability", "setting": "NCI-H2126; first compound 0.253 µM", "result": 0.813},
      {"measurement": "relative viability", "setting": "NCI-H2126; first compound 0.8 µM", "result": 0.581},
      {"measurement": "relative viability", "setting": "NCI-H2126; first compound 2.53 µM", "result": 0.535},
      {"measurement": "relative viability", "setting": "NCI-H2126; first compound 8 µM", "result": 0.828},
      {"measurement": "relative viability", "setting": "LC-2-ad; first compound 0.08 µM", "result": 0.814},
      {"measurement": "relative viability", "setting": "LC-2-ad; first compound 0.253 µM", "result": 0.934},
      {"measurement": "relative viability", "setting": "LC-2-ad; first compound 0.8 µM", "result": 0.792},
      {"measurement": "relative viability", "setting": "LC-2-ad; first compound 2.53 µM", "result": 0.741},
      {"measurement": "relative viability", "setting": "LC-2-ad; first compound 8 µM", "result": 0.727}
    ]}
  ]
}
